# Measurements published in US8592458B2 (priority 2005, dated 2013).
# Counter-ions that a name gives are not always drawn. Like-named read-outs stand apart in the source and are kept apart here.
# How the values were obtained:
# [1] = target: α7 nAChR (Rattus norvegicus, UniProt Q05941); type: binding; conditions: for RELATIVE A7/A4B2 SELECTIVITY / Ki: rat brain membranes; for RELATIVE A7/A4B2 SELECTIVITY: Ki alpha4beta2 / Ki alpha7, divided by the alpha7 selectivity of DMXBA (1.95), DMXBA set to 1.00; for Ki α4β2/α7 Ratio: alpha7 selectivity, not normalized with respect to DMXBA selectivity; for Ki: [125I]alpha-bungarotoxin, n = 2
# Chain of α7 nAChR (Q05941 23-502): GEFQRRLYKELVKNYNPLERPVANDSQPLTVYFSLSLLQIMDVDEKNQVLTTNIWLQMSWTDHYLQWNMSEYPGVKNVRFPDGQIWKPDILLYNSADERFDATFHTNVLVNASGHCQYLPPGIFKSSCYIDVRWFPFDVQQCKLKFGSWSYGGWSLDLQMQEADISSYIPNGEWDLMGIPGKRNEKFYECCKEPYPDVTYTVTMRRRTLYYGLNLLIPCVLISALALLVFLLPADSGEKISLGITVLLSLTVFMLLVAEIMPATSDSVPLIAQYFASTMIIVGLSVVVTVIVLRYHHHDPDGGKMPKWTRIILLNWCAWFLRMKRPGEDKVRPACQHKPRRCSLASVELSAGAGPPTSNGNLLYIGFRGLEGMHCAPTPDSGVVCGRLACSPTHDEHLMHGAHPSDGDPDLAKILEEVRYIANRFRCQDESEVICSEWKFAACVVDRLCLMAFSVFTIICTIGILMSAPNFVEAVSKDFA
# [2] = target: α4β2 nAChR (Rattus norvegicus, UniProt P09483+P12390); assay: Radioligand binding, displacement of [3H]cytisine from rat brain membranes; conditions: n = 2
# Chain of α4β2 nAChR (P09483 31-630): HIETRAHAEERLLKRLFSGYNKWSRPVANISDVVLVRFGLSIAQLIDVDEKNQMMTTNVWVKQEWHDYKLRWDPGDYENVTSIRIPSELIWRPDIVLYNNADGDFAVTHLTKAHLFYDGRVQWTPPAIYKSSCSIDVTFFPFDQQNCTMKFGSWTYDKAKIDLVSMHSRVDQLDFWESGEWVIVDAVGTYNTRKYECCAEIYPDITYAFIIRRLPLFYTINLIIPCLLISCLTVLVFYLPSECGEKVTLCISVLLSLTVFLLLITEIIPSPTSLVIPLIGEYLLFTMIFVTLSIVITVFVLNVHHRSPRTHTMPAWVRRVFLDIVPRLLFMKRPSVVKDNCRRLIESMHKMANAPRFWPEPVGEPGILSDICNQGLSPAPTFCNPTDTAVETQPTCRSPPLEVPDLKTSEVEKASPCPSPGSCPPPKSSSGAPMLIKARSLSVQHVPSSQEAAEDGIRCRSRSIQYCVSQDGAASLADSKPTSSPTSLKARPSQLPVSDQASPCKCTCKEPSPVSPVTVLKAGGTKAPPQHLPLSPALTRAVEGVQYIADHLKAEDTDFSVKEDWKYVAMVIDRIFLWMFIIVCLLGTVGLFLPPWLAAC
# Chain of α4β2 nAChR (P12390 25-500): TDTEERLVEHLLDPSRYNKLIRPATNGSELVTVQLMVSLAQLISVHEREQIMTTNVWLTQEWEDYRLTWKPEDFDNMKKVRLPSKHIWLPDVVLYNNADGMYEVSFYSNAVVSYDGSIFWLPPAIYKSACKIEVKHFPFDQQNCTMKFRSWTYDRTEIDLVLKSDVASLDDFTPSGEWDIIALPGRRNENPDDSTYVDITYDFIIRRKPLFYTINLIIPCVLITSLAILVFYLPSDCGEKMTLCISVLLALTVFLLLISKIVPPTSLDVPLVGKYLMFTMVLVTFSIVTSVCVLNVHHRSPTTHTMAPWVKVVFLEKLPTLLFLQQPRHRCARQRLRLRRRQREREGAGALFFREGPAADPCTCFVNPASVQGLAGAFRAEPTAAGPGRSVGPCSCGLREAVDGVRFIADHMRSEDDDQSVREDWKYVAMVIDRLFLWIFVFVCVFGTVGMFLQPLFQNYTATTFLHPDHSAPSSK
# Experimental: Assays were performed using the experimental compound to compete for its nAChR binding site with a radioligand that specifically labels either the α4β2 or the α7 nAChR in homogenized Sprague-Dawley rat brain membrane. These assays were used to determine the IC50 of the experimental compounds, which is then used to determine the KI with the Cheng-Prusoff equation.
# The 3-arylidene-anabaseine compound was suspended in 50 mM Tris binding saline, with 2 mg/ml BSA, if it was a salt, or in methanol if it was a free base, and dilutions were made in 2 mg/ml BSA Tris binding saline. The final solutions were incubated at 37° C. for approximately 2.5 hours. Once the reaction was assumed to be at equilibrium, it was stopped by harvesting the tissue onto GF/C filters, which were soaked for 45 minutes in a 0.5% polyethylenamine solution to reduce non-specific binding of the radioligand to the filter, using a Brandel tissue harvester. The filters were then placed in gamma tubes and counted on a Beckman counter for 5 minutes per sample. The counts per minute were then assessed, the results were entered, and the IC50s and KIs were determined using the software program Graphpad Prism®. The [^3H]cytisine experiments were performed in a similar manner. First the addition of all of the components: 1 nM [^3H]cytisine, 3-benzylidene-3-arylidene-anabaseine compound (5 nM-50 μM), 0.2 mg rat brain homogenate, and 2 mg/ml BSA Tris solution at a pH of 7.4 to bring the final volume up to 0.5 ml in each tube.
# To assess non-specific binding, 1 mM nicotine was added in place of the 3-arylidene-anabaseine. To assess total binding, only the radioligand, tissue, and BSA Tris solution were added. The incubation time and the temperature were altered in this protocol to produce the greatest difference between total and non-specific binding and to maximize the affinity of the radioligand for the receptor, respectively. The incubation time for [^3H]cytisine was 4 hours at 4° C. […] The counts per minute were entered into GraphPad Prism® where the IC50s and the KIs were assessed.
# Rat brain membrane was obtained frozen from Pel-Freez Biologicals (Rogers, Ariz.). The protein concentration of the rat brain homogenate was assessed using the bicinchoninic acid (BCA) protein assay kit from Pierce (Rockford, Ill.).
# Displacement of ^125I-labelled alpha-bungarotoxin (BTX) measured binding to alpha7 receptors; displacement of [^3H]-labelled cytisine measured binding to alpha4beta2 receptors. […] Nonspecific binding of each radioligand was measured in the presence of 1.0 mM nicotine. […] Bound [3H] […] was measured in a liquid scintillation counter, whereas [125]BTX was measured with use of a Biogamma counter (both from Beckman Coulter).
# [3] = Spectrophotometric pKa determination of the imine nitrogen; type: physicochemical; conditions: for % ionized: percent ionization at pH 7.4
# Experimental: Thirteen different pH values in the titration region were evaluated (pH: 4, 5, 6, 7, 7.2, 7.5, 7.8, 8, 8.2, 8.5, 8.8, 9, 10). A specific concentration of 3-benzylidene-3-arylidene-anabaseine compound, 1.3×10^−3 M, was added to the potassium phosphate buffers at varied pH values. Each tube was then vortexed and immediately read in a Beckman spectrophotometer. The same glass cuvette was used with every sample. The glass cuvette was thoroughly rinsed with distilled deionized water between different pH samples. The wavelength scan was set to a range of 250-600 nm. The pH with the highest change in absorbance was determined. The wavelength at the highest change in absorbance and the absorbance values for all of the different pH samples at this wavelength were entered into the Enzfitter software (Elsevier-Biosoft, Cambridge, UK) in order to estimate each pKa value.
# [4] = Octanol/water partition coefficient by RP-HPLC; type: physicochemical; conditions: 1-octanol/sodium phosphate buffer; 1-octanol / 10 mM sodium phosphate buffer pH 7.4 with 150 mM NaCl, corrected for ionization
# Experimental: P is the ratio of the concentration of an un-ionized form of a compound in octanol relative to the unionized concentration of the compound in an aqueous phase containing 150 mM NaCl (to approximate physiological conditions), after the two phases have equilibrated. Log P values were determined for each test compound by RP-HPLC analysis. Approximately 1 mg of each compound was weighed out and placed in equal volumes, 3 ml 10 mM sodium phosphate buffer, pH 7.4, which contained 150 mM NaCl, and 1-octanol. Previously, equal volumes of the sodium phosphate buffer and 1-octanol were added to a separatory funnel and allowed to equilibrate overnight. The equilibrated sodium phosphate buffer was checked prior to its addition to the compound for a pH of 7.4. Once these phases were added to the weighed compound, the solutions were allowed to equilibrate overnight on a gentle shaker at room temperature. The samples were centrifuged at […] for 5 minutes and octanol phase carefully removed with a Pasteur pipette. The pH of the water phase was remeasured in order to calculate the corrected Log P value.
# Since large concentrations of octanol cannot be directly injected into the HPLC without affecting the elution of the compound being measured, the compound was extracted from the separated octanol phase with an acidic 150 mM NaCl solution adjusted to a pH of approximately 2.6 (with 100 mM glacial acetic acid). The acidic saline solution was allowed to gently mix with the octanol phase for 20 minutes on a shaker at room temperature. The samples containing the octanol and acidic saline phases were then centrifuged at 1,000×g for 5 minutes and the upper octanol phase was carefully removed with a Pasteur pipette. This back extraction step was repeated at least two and sometimes three times. All three or four back extracted solutions for a particular compound were then combined. Both the original aqueous and the back extracted octanol phases were then diluted with 50 mM ammonium acetate buffer, pH 4.5. The diluted samples were then transferred by pipette to autosampler tubes and subsequently […] of each diluted sample was injected into the HPLC. The area under the curve (AUC) of an absorbance peak was determined for samples from both (octanol and aqueous) of the original phases. Taking into account the dilutions of each sample phase during its preparation for HPLC determination, Log P (taking into consideration the percent ionization at pH 7.4) was then calculated.
# [5] = imine nitrogen, room temperature, 50 mM potassium phosphate buffer, 150 mM NaCl
compound,measurement,setting,value
"CC1CCN=C(c2cccnc2)C1 (racemic) [(S,R)-4-Methyl-Anabaseine, 4-Methyl-anabaseine]",RELATIVE A7/A4B2 SELECTIVITY,[1],0.69
"COc1ccc(/C=C2\CCCN=C2c2cccnc2)c(OC)c1 [DMXBA (GTS-21), (E)-3-(2,4-dimethoxybenzylidene)-3,4,5,6-tetrahydro-2,3′-bipyridine, reference compound]",RELATIVE A7/A4B2 SELECTIVITY,[1],1.00
"COc1cc(O[C@@H]2O[C@H](C(=O)O)[C@@H](O)[C@H](O)[C@H]2O)ccc1C=C1CCCN=C1c1cccnc1 [3-(4-Beta-Glucuronidyl-2-methoxyB)A, 3-(4-Glucuronido-2-methoxybenzylidene)-anabaseine]",RELATIVE A7/A4B2 SELECTIVITY,[1],9.40
"COc1ccc(C=C2CC(C)CN=C2c2cccnc2)c(OC)c1 (stereo not drawn) [Least selective enantiomer of 5-Methyl-DMXBA, 3-(2,4-dimethoxybenzylidene)-(5-methyl)-3,4,5,6-tetrahydro-2,3′-bipyridine]",RELATIVE A7/A4B2 SELECTIVITY,[1],1.03
"C(=C1/CCCN=C1c1cccnc1)/c1ccc2c(c1)OCO2 [3-[3,4-(Methylenedioxy)benzylidene]-anabaseine]",Ki α4β2/α7 Ratio,[1],3.04
same,Ki,[1],0.23 ± 0.002 µM
same,Ki,[2],0.7 ± 0.07 µM
same,pKa,[3]; [5],7.64 ± 0.04
same,% ionized,[3],63.48%
same,logP,[4],2.43
"COc1ccc(C=C2C(c3cccnc3)=NCCC2C)c(OC)c1 (stereo not drawn) [Most selective enantiomer of 4-Methyl-DMXBA, 3-(2,4-dimethoxybenzylidene)-(4-methyl)-3,4,5,6-tetrahydro-2,3′-bipyridine]",RELATIVE A7/A4B2 SELECTIVITY,[1],8.34
same,"relative alpha7 nAChR (versus alpha4beta2) receptor binding selectivity, higher than that of the other enantiomer","[1]; rat brain nAChR, compared with the other enantiomer",6.5 fold
"COc1ccc(C=C2C(c3cccnc3)=NCCC2C)c(OC)c1 (racemic) [(S,R)-4-Methyl-DMXBA, 3-(2,4-dimethoxybenzylidene)-(4-methyl)-3,4,5,6-tetrahydro-2,3′-bipyridine]",RELATIVE A7/A4B2 SELECTIVITY,[1],4.10
"COc1ccc(C=C2CCC(C)N=C2c2cccnc2)c(OC)c1 (racemic) [(S,R)-6-Methyl-DMXBA, 3-(2,4-dimethoxybenzylidene)-(6-methyl)-3,4,5,6-tetrahydro-2,3′-bipyridine]",RELATIVE A7/A4B2 SELECTIVITY,[1],3.67
"C(=C1/CCCN=C1c1cccnc1)/c1ccc2c(c1)OCCO2 [3-[3,4-(Ethylenedioxy)benzylidene]-anabaseine]",Ki α4β2/α7 Ratio,[1],2.60
same,Ki,[1],0.2 ± 0.01 µM
same,Ki,[2],0.52 ± 0.01 µM
same,pKa,[3]; [5],7.56 ± 0.03
same,% ionized,[3],59.11%
same,logP,[4],3.1
4′-Methyl-DMXBA,RELATIVE A7/A4B2 SELECTIVITY,[1],14.8
COc1ccc2cc(/C=C3\CCCN=C3c3cccnc3)ccc2c1 (as salt: hydrochloride) [3-[(6-Methoxy-naphth-2-yl)-methylene]-anabaseine dihydrochloride],melting point,,223 to 226 °C
"COc1ccc(C=C2CCC(C)N=C2c2cccnc2)c(OC)c1 (stereo not drawn) [Most selective enantiomer of 6-Methyl-DMXBA, 3-(2,4-dimethoxybenzylidene)-(6-methyl)-3,4,5,6-tetrahydro-2,3′-bipyridine]",RELATIVE A7/A4B2 SELECTIVITY,[1],5.34
"CC1CCC(c2cccnc2)=NC1 (racemic) [(S,R)-5-Methyl-Anabaseine, 5-Methyl-Anabaseine]",RELATIVE A7/A4B2 SELECTIVITY,[1],0.38
"COc1ccc(C=C2C(c3cccnc3)=NCCC2C)c(OC)c1 (stereo not drawn) [Least selective enantiomer of 4-Methyl-DMXBA, 3-(2,4-dimethoxybenzylidene)-(4-methyl)-3,4,5,6-tetrahydro-2,3′-bipyridine]",RELATIVE A7/A4B2 SELECTIVITY,[1]; listed as 4-methyl-DMXBA enantiomer which had a longer retention time,1.28
"COc1ccc(C=C2CC(C)CN=C2c2cccnc2)c(OC)c1 (stereo not drawn) [Most selective enantiomer of 5-Methyl-DMXBA, 3-(2,4-dimethoxybenzylidene)-(5-methyl)-3,4,5,6-tetrahydro-2,3′-bipyridine]",RELATIVE A7/A4B2 SELECTIVITY,[1],2.34
"c1cncc(C2=NCCCC2)c1 [Anabaseine, reference compound]",RELATIVE A7/A4B2 SELECTIVITY,[1],0.69
"COc1ccc(C=C2CCC(C)N=C2c2cccnc2)c(OC)c1 (stereo not drawn) [Least selective enantiomer of 6-Methyl-DMXBA, 3-(2,4-dimethoxybenzylidene)-(6-methyl)-3,4,5,6-tetrahydro-2,3′-bipyridine]",RELATIVE A7/A4B2 SELECTIVITY,[1],2.93
COc1ccc2cc(/C=C3\CCCN=C3c3cccnc3)ccc2c1 [3-[(6-Methoxy-naphth-2-yl)-methylene]-anabaseine dihydrochloride],Ki α4β2/α7 Ratio,[1],1.62
same,Ki,[1],0.37 ± 0.03 µM
same,Ki,[2],0.6 ± 0.1 µM
same,pKa,[3]; [5],7.29 ± 0.12
same,% ionized,[3],43.67%
same,logP,[4],2.65
"COc1ccc(C=C2CC(C)CN=C2c2cccnc2)c(OC)c1 (racemic) [(S,R)-5-Methyl-DMXBA, 3-(2,4-dimethoxybenzylidene)-(5-methyl)-3,4,5,6-tetrahydro-2,3′-bipyridine]",RELATIVE A7/A4B2 SELECTIVITY,[1],1.31
C(=C1/CCCN=C1c1cccnc1)/c1cc2ccccc2o1 [3-[(Benzofuran-2-yl)methylene]-anabaseine],Ki α4β2/α7 Ratio,[1],39.5
same,Ki,[1],0.15 ± 0.003 µM
same,Ki,[2],5.92 ± 1.06 µM
same,PKa,[3]; [5],9/2/04
same,% ionized,[3],33.90%
same,logP,[4],3.86 ± 0.4
"CC1CCCC(c2cccnc2)=N1 (racemic) [(S,R)-6-Methyl-Anabaseine, 6-methyl-anabaseine]",RELATIVE A7/A4B2 SELECTIVITY,[1],1.19
